pIC50: −log10 of the molar value. Where no end group is shown, it is not given here.

Assay [1] concerns A. baumannii ATCC 19606. In kind it is cell-based, Acinetobacter baumannii.
Method: (§4) Antimicrobial activity was assessed with a liquid growth inhibition assay performed according to a previously described protocol [14] using the Clinical and Laboratory Standards Institute (CLSI) guidelines. Briefly, in 96-well microtitration plates, mid-log-phase bacteria diluted to 10^6 CFU/mL in Mueller–Hinton (MH) broth were added to different concentrations of synthetic temporin-SHe (1–200 µM, final concentrations) and incubated at 37 °C for 18–20 h, under shaking (150 rpm). For E. faecalis, L. ivanovii and yeasts/fungi, 10^6 CFU/mL suspensions were prepared in LB broth, brain heart infusion (BHI) medium and Yeast Peptone Dextrose (YPD) medium, respectively, and incubation was performed at 30 °C for yeasts/fungi. […] MIC values represent the average of three independent experiments, each performed in triplicate with negative (no peptide) and positive (formaldehyde 0.7%) controls.
The test system of assay [2] is E. coli ML-35p. In kind it is cell-based, Escherichia coli. As to conditions: liquid growth inhibition (CLSI), 10^6 CFU/mL in MH broth, 37 °C, 18–20 h, OD 630 nm; mean of three independent experiments in triplicate.
Method: as §4
Assay [3] relates to S. aureus ST1065. In kind it is cell-based, Staphylococcus aureus.
Assay [4] relates to E. coli ATCC 25922. In kind it is cell-based, Escherichia coli.
Method: as §4
The test system of assay [5] is S. enterica (serotype Enteritidis). As to the method:
(§1) Antibacterial activity of temporin-SHe was evaluated against Gram-positive bacteria including S. aureus strains (ATCC 25923, ST1065), antibiotic-resistant S. aureus strains (ATCC 43300, ATCC BAA-44), E. faecalis (ATCC 29212), B. megaterium, and L. ivanovii (Li4pVS2), and Gram-negative bacteria including E. coli strains (ATCC 25922, ATCC 35218, ML-35p), S. enterica (serotype Enteritidis), P. aeruginosa (ATCC 27853), A. baumannii (ATCC 19606) and K. pneumoniae (ATCC 13883). Antifungal activity was evaluated against C. albicans (ATCC 90028), C. parapsilosis (ATCC 22019) and S. cerevisiae. ATCC strains were purchased from American-Type Culture Collection (ATCC, Virginia, VA, USA). Antiparasitic activity was determined against promastigotes of several species of Leishmania responsible for visceral, cutaneous and mucocutaneous leishmaniases: L. infantum (strain MHOM/MA/67/ITMAP-263), L. major (strain MHOM/SU/73/5-ASKH), and L. braziliensis (strain MHOM/BR/75/M2904), respectively. Cytotoxicity was assessed against human red blood cells and THP-1 monocytes. Peripheral blood was obtained from healthy adult donors (Établissement Français du Sang, Paris, France). All donors signed informed consent allowing the use of their blood for research purposes.
(§2) Antimicrobial activity was assessed with a liquid growth inhibition assay performed according to a previously described protocol using the Clinical and Laboratory Standards Institute (CLSI) guidelines. Briefly, in 96-well microtitration plates, mid-log-phase bacteria diluted to 10^6 CFU/mL in Mueller–Hinton (MH) broth were added to different concentrations of synthetic temporin-SHe (1–200 µM, final concentrations) and incubated at 37 °C for 18–20 h, under shaking (150 rpm). For E. faecalis, L. ivanovii and yeasts/fungi, 10^6 CFU/mL suspensions were prepared in LB broth, brain heart infusion (BHI) medium and Yeast Peptone Dextrose (YPD) medium, respectively, and incubation was performed at 30 °C for yeasts/fungi. […] MIC values represent the average of three independent experiments, each performed in triplicate with negative (no peptide) and positive (formaldehyde 0.7%) controls.

Assay [6] concerns L. ivanovii (Li4pVS2). As to conditions: liquid growth inhibition (CLSI), 10^6 CFU/mL in brain heart infusion (BHI) medium, 37 °C, 18–20 h, OD 630 nm; mean of three independent experiments in triplicate. Here is the method:
as §1, §2

The subject of assay [7] is all tested Gram-positive bacteria. As to conditions: range over all tested Gram-positive bacteria. Here is the method: as §1, §2
Assay [8] has as its system E. coli ATCC 35218. In kind it is cell-based, Escherichia coli.
Method: as §4
Assay [9] has as its system K. pneumoniae ATCC 13883. In kind it is cell-based, Klebsiella pneumoniae.
Method: as §4
Assay [10] relates to E. faecalis ATCC 29212. In kind it is cell-based, Enterococcus faecalis.
Method: as §4
For assay [11], the system named is S. aureus ST1065. As to the kind of experiment: Time-killing assay. To be noted: two-fold MIC (6.25 µM temporin-SHe), 10^6 cfu/mL in PBS, plate counting. In kind it is cell-based, Staphylococcus aureus. As to the method:
Aliquots were withdrawn at different times and spread onto LB agar plates for cell counting after overnight incubation at 37 °C. Controls corresponding to the bacterial suspensions without peptide were also run. Two independent experiments were performed in triplicate. Results were expressed as the mean ± S.D. of a representative experiment.

Assay [12] concerns E. coli strains. In kind it is cell-based, Escherichia coli.
Method: as §4
Assay [13] deals with S. aureus ST1065. As to the kind of experiment: Membrane permeabilization assay (ONPG hydrolysis). In kind it is cell-based, Staphylococcus aureus. To be noted: increasing peptide concentrations, 2.5 mM ONPG in PBS, 37 °C. As to the method: (§3) The ability of temporin-SHe to permeabilize bacterial cytoplasmic membrane was determined using the Gram-negative strain E. coli ML-35p and the Gram-positive strain S. aureus ST1065, as described. Briefly, after incubation of bacteria (37 °C) in 96-well plates with PBS containing 2.5 mM o-nitrophenyl-β-D-galactopyranoside (ONPG) and different concentrations of temporin-SHe, the production of o-nitrophenol (ONP) resulting from hydrolysis of ONPG by intracytoplasmic β-galactosidase was monitored at 405 nm according to the time (Fluostar Galaxy plate reader, BMG Labtech, Champigny-sur-Marne, France). Wells containing bacteria and ONPG, with no peptide, were used as negative control. Two independent experiments were performed in triplicate. Results are from a representative experiment and were expressed as the mean ± S.D.

Assay [14] concerns E. coli ML-35p. As to the kind of experiment: Membrane permeabilization assay (ONPG hydrolysis). As to conditions: increasing peptide concentrations, 2.5 mM ONPG in PBS, 37 °C. In kind it is cell-based, Escherichia coli. As to the method:
as §3

The subject of assay [15] is S. aureus ATCC 25923. In kind it is cell-based, Staphylococcus aureus.
Method: as §4
The test system of assay [16] is L. braziliensis promastigotes (strain MHOM/BR/75/M2904). In kind it is cell-based, Leishmania braziliensis. As to conditions: 72 h, 26 °C. Here is the method:
Antileishmanial activity of temporin-SHe was analyzed by a luminescence-based growth inhibition method using Leishmania promastigotes transfected with the vector pGMαNEOαLUC containing the gene LUC that codes for the firefly luciferase, cultured at 26 °C in SDM-79 medium supplemented with 10% fetal calf serum (Gibco), as previously described. Mid-log-phase promastigotes (1.25 × 10^6 cells/mL) were added in 96-well plates containing different concentrations of synthetic temporin-SHe (3.125–50 µM, final concentrations), and incubated 72 h at 26 °C. […] IC50 was determined with GraphPad Prism® 6.0 software (GraphPad Software, La Jolla, CA, USA) using a sigmoidal dose–response curve fitting equation.

For orientation: MIC means the lowest concentration found to suppress growth. A high value points to weaker potency. For orientation: pIC50 means the negative decadic logarithm of the IC50, by convention in mol/L. With FLPALAGIAGLLGKIF-NH2 [Temporin-SHe], the MIC amounted to 25 µM in assay [1]; 50 µM in assay [2]; 3.12 µM in assay [3]; 25 µM in assay [4]; 100 µM in assay [5]; 5 µM in assay [6]. Further, the MIC came to 50 µM in assay [8], 100 µM in assay [9], 12.5 µM in assay [10] and 3.12 µM in assay [15]. The figures for the MIC range in assay [7] and in assay [12] were 1.56 to 12.5 µM and 25 to 50 µM, respectively. Further, the “time to complete killing” value in assay [11] is recorded as at most 5 min. The “cytoplasmic membrane permeabilization (ONP production, A405)” value in assay [13] is “time- and concentration-dependent manner”; in assay [14], “time- and concentration-dependent manner”. This substance also had a pIC50 in assay [16] (luciferase-expressing promastigotes 1.25 × 10^6 cells/mL, Steady-Glo, mean of three independent experiments in triplicate) of 4.98. Moreover, the “Leishmania growth inhibition (L. braziliensis)” value in assay [16] (peptide 12.5 µM, promastigotes, mean of three independent assays in triplicates) stood at 87%.
